From article PMC10338423, “Synthesis and preclinical evaluation of a novel fluorine-18 labeled small-molecule PET radiotracer for imaging of CXCR3 receptor in mouse models of atherosclerosis” (EJNMMI Research, 2023)

Columns and labels:
[1] = molecular target: T1, CXCR3 (Mus musculus, UniProt O88410); experiment: PET/CT imaging, baseline and self-blocking, in ApoE KO mice on high-fat diet; type: in vivo
T1 construct: tissue Jackson Laboratory (mice); host or cells: In vivo: atherosclerotic abdominal aorta and brown adipose tissue of ApoE KO mice (high-fat diet) and C57BL/6 control mice (normal diet)
T1 sequence (O88410 1-367): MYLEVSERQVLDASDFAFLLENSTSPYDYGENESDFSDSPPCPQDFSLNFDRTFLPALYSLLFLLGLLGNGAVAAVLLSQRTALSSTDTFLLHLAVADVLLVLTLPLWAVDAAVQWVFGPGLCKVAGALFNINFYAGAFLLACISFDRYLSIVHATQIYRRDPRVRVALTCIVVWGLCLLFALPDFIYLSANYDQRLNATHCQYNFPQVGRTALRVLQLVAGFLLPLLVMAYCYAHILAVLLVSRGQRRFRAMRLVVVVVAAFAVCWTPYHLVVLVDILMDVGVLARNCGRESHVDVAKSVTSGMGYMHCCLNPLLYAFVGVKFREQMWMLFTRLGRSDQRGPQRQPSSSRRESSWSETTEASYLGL
From the text: (§1) [^18F]1 was further evaluated for reliability as a CXCR3 radiotracer using mouse models of atherosclerosis. For this purpose, we tested [^18F]1 in ApoE KO mice, a widely used murine model of atherosclerosis. Six-week-old ApoE KO male mice (N = 6) and C57BL/6 male control mice (i.e., a background strain of ApoE KO mouse, ApoE-wildtype control; N = 6) were purchased from Jackson Laboratory (Bar Harbor, ME). The ApoE KO mice were placed on a high-fat diet over 12 weeks to accelerate atherosclerosis development. […] At 12 weeks, PET/computed tomography (CT) studies were performed using both mice groups. Dynamic PET scans (90 min acquisition) were performed beginning 5 min after the intravenous injection of [^18F]1 followed by a ~ 10 min CT scan. Usually, one week after the baseline PET/CT scan, the corresponding blocking PET/CT scan was performed. This time, 1·HCl salt (5 mg/kg) was used as a blocking agent and intravenously injected 5 min before the radiotracer injection.
(§2) All animal studies were performed at the VA Biomolecular Imaging Center (VA BIC) at the Harry S. Truman Memorial Veterans’ Hospital (Columbia, MO). Six-week-old ApoE KO male mice and C57BL/6 control male mice were purchased from Jackson Laboratory. All mice were housed in the controlled vivarium during the studies. All ApoE KO mice were fed with high-fat chow that contained 42% fat, 34% of that contained unsaturated fat (TD.88137, Envigo, Indianapolis, IN), one week after the arrival and continued the feeding until the end of the study. The first PET/CT scans were performed 12 weeks after initiating the high-fat diet, and the second PET/CT scans that used 1·HCl as a blocking agent were performed at least one week after the first PET/CT scans. Meanwhile, C57BL/6 control mice were fed with normal chow over the same schedule to match with ApoE KO mice.
(§3) Maximum intensity micro-PET images were obtained on a Siemens INVEON small-animal PET/CT scanner (Siemens Medical Solutions USA, Inc., Malvern, PA). […] The micro-PET data was analyzed using Siemens Inveon Research Workplace, General Analysis software. […]

[2] = molecular target: T1, CXCR3; experiment: PET/CT imaging, baseline and self-blocking, in C57BL/6 control mice on normal diet; type: in vivo
From the text: as §1, §2, §3

[3] = Stability of formulated radiotracer (HPLC); type: physicochemical; details: formulated in 10% EtOH/0.9% saline containing 0.5% sodium ascorbate
Method: The addition of AcOH and the high temperature was necessary for an improved RCC. A usual C18 SPE workup followed by semi-preparative reverse phase HPLC purification afforded [^18F]1 in RCY of 13 ± 2% (n = 10) at the end of synthesis (EOS). The semi-preparative HPLC chromatograms of [^18F]1 is shown in Additional file 1: Fig. S1(a). The HPLC purification was performed using a Phenomenex Gemini C18 Semi-preparative column (5 µm, 250 × 10 mm) equipped with UV (254 nm) and radioactivity detectors by eluting with an isocratic mobile phase composed of 65% MeCN, 5% MeOH, 30% water, and 0.1% triethylamine (NEt3) at a flow rate of 5 mL/min. The radioactive [^18F]1 was collected between 16 and 17 min and was well-separated from the rest of the UV and radioactivity peaks. After the purification, the collected product was formulated in 10% EtOH/0.9% saline containing 0.5% sodium ascorbate. The total radiosynthesis time was 100 min at the EOS. The final reformulated aliquot was further characterized by HPLC analysis using a Phenomenex Gemini C18 analytical column (5 µm, 250 × 4.6 mm) equipped with UV and radioactivity detectors by eluting with the same HPLC solvent at a flow rate of 1 mL/min. The radioactive peak was eluted between 15 and 17 min. […]

[4] = 1·HCl 5 mg/kg i.v. 5 min before tracer
[5] = blocking study with 1·HCl 5 mg/kg i.v., stated for both groups

Q: For `CC[C@H]1CN(c2ncc(-c3nnco3)cc2Cl)CCN1C1CCN(Cc2ccc(Cl)cc2[18F])CC1` [[^18F]1], which “blocking effect in BAT (from AUC of TACs)” value [1, 4] is on record?
A: 23.4%

Q: What about the “blocking effect in atherosclerotic abdominal aorta (from AUC of TACs)” value [1, 4] of the same compound?
A: 16.9%

Q: And the “standard uptake value (SUV), BAT region” value [1, 5]?
A: 1.2–1.5

Q: And the “blocking effect in BAT (from AUC of TACs)” value [2, 4]?
A: 45.9%

Q: What about the “blocking effect in abdominal aorta (from AUC of TACs)” value [2, 4] of the same compound?
A: 4.7%

Q: What about the “standard uptake value (SUV), BAT region” value [2, 5] of the same compound?
A: 1.2–1.5

Q: What about the “time radiotracer is stable” value [3] of the same compound?
A: more than 10 h
